This is an account of results in patent US20170223976A1, “MODIFIED MILK POWDER CONTAINING 1,5-ANHYDRO-D-GLUCITOL” (NIHON STARCH CO., LTD., priority 2015, published 2017).

For data set [1] the following is noted: cited from earlier work.
The subject of a further data set is mesenchymal stem cells. Description: GeneChip analysis using mesenchymal stem cells. Format: cell-based, human. Conditions: 1,5-AG reduced from 40 μg/mL to 1 μg/mL or less, 10th day. Here is the method: GeneChip analysis using mesenchymal stem cells was carried out to clarify the function of 1,5-AG in a human. After 1,5-AG was added to a medium to ensure that the final concentration of 1,5-AG became not more than 1 μg/mL or 40 μg/mL and the mesenchymal stem cells were cultured for 10 days, total RNA was collected to carry out GeneChip analysis so as to analyze genes which were expressed and fluctuated according to the difference in the amount of 1,5-AG cyclopaedically. A similar test was carried out 3 times to obtain results which were then summarized and analyzed. The test was carried out by the following method.
Crystalline 1,5-AG was dissolved in pure water to a concentration of 40 mg/mL and filtered with a centrifugal ultrafiltration membrane having a molecular weight cut-off of 3,000 to remove trace macromolecules.
Mesenchymal cells derived from bone marrow (Riken Cell Bank, Resource No. MSC-R46)
DMEM prepared by adding 10% fetal bovine serum (FBS) and a 3 ng/mL fibroblast growth factor (FGF-2) (to be referred to as “growth medium” hereinafter) was used for the preculture of the mesenchymal stem cells. 10% FBS-added DMEM (to be referred to as “test medium” hereinafter) was used in this test. FGF-2 has the function of keeping the undifferentiated state of the mesenchymal stem cells, and the undifferentiated state of the cells was maintained by using the FGF-2-added medium during preculture. In this test, to analyze the differentiation-inducing effect of the sample, a medium containing no FGF-2 was used.
The human mesenchymal cells were initiated in a T-75 flask by using the growth medium and cultured in a CO2 incubator (5% CO2, 37° C., moistening). Medium exchange was carried out every 2 days, and the cells were separated by using 0.25% Trypsin/EDTA when 80% confluence was reached and collected to be used in this test.
The sample was added to a test medium to ensure that the final concentration of 1,5-AG became 40 μg/mL. […]

Setting [2] is: excessive amount of 1,5-AG taken as food.

In the case of `OC[C@H]1OC[C@H](O)[C@@H](O)[C@@H]1O` [1,5-AG, 1,5-anhydro-D-glucitol], in data set [1] (setting [2]), the “temporary rise of the concentration of 1,5-AG in the blood” value is “about 100 times” and the “time for the 1,5-AG level in the blood to return to the original level” value was “about 24 hours”. Moreover, the “time for the 1,5-AG level in the blood to return to the original value” in data set [1] (ingested temporarily, for example 20 g, eliminated through urine) was “about 24 hours”. In addition, in the data set on mesenchymal stem cells, the “expression of CSH-1” value is “decreases as well” and the “expression of interleukin 6 signal transducer (IL6ST) gene” value is listed as “reduced most”. In the data set with mesenchymal stem cells (rank among genes whose expression was reduced), the “expression of pregnancy specific beta-1-glycoprotein 1 (PSG-1) gene” value is “observed after these”.
